# From patent US10981926B2 (Janssen Pharmaceutica NV, priority 2016, dated 2021)
# Experiments:
# [1] = target: T1, wild-type Androgen Receptor (AR-wt) (Homo sapiens (Human), UniProt P10275); assay: LNCaP-AR-wt ANT reporter assay (antagonist mode); type: cell-based; details: for IC50: read-out: LNCaP-AR-wt ANT pIC50 (converted); for Emax: maximum % inhibition of R1881 control response over the tested concentration range, read-out: LNCaP-AR-wt ANT MAX % Inh
# [2] = target: T2, F876L mutant Androgen Receptor (AR-F876L) (Homo sapiens (Human), UniProt P10275, F877L); assay: LNCaP-AR-F876L AG reporter assay (agonist mode); type: cell-based; details: for EC50: agonist mode, pEC50 = −Log10(EC50 in Molar), read-out: LNCaP-AR-F876L AG pEC50 (converted); for Emax: maximum % stimulation (agonist response) over the tested concentration range, read-out: LNCaP-AR-F876L AG MAX % Stim
# T2 sequence (P10275 whole entry F877L): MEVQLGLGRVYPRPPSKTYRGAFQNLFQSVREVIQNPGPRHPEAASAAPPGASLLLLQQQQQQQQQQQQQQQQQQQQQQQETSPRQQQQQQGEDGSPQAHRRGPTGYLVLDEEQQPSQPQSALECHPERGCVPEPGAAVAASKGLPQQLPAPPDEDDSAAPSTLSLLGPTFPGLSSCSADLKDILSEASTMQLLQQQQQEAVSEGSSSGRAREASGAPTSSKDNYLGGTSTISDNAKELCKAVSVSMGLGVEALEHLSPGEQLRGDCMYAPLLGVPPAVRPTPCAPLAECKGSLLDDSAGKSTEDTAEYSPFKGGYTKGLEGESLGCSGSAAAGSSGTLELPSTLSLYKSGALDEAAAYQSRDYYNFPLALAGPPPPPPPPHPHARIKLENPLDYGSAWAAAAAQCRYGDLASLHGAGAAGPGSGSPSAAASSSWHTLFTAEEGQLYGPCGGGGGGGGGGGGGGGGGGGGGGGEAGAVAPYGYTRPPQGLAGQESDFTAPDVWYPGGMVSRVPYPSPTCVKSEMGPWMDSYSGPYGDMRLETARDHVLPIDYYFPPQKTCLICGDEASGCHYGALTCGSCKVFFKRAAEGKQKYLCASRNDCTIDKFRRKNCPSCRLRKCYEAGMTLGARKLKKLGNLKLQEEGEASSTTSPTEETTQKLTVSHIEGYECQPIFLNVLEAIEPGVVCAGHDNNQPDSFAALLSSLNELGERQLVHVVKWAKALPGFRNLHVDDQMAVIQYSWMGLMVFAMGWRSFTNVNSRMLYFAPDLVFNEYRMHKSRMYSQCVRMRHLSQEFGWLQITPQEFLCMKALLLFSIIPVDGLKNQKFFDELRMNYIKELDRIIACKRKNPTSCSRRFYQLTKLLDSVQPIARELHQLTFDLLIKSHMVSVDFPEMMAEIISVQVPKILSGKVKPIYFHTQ
# rGABA-gated Cl− channel = assay: GABA-Gated Cl Channel Antagonist Radioligand Binding Assay; parameters: species or system rat; details: 10 μM single point, [35S]-TBPS, cerebral cortex membrane homogenates
# Summary of the method: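 Rat cerebral cortex membranes (120 μg protein) incubated 120 min at 22° C with 3 nM […] in 50 mM Na2HPO4/KH2PO4 pH 7.4, 500 mM NaCl; nonspecific binding defined with 20 μM picrotoxinin. Bound label counted after filtration; values are percent inhibition of specific binding at 10 μM compound.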
# [3] = target: T2, F876L mutant Androgen Receptor (AR-F876L); assay: LNCaP-AR-F876L ANT reporter assay (antagonist mode); type: cell-based; details: for IC50: read-out: LNCaP-AR-F876L ANT pIC50 (converted); for Emax: maximum % inhibition of R1881 control response over the tested concentration range, read-out: LNCaP-AR-F876L ANT MAX % Inh
# [4] = target: T1, wild-type Androgen Receptor (AR-wt); assay: LNCaP-AR-wt AG reporter assay (agonist mode); type: cell-based; details: for EC50: agonist mode, pEC50 = −Log10(EC50 in Molar), read-out: LNCaP-AR-wt AG pEC50 (converted); for Emax: maximum % stimulation (agonist response) over the tested concentration range, read-out: LNCaP-AR-wt AG MAX % Stim
# [5] = antagonist mode, pIC50 = −Log10(IC50 in Molar)
# T1 sequence (P10275 whole entry): as the sequence (P10275 whole entry F877L) above, with L877F counted along it
"IC50 [1, 5]",Emax [1],EC50 [2],Emax [2],rGABA-gated Cl− channel % inh @10 μM (rGABA-gated Cl− channel),"IC50 [3, 5]",Emax [3],EC50 [4],Emax [4],"LNCaP-AR-wt ANT pIC50 [1, 5]","LNCaP-AR-F876L ANT pIC50 [3, 5]",Structure (SMILES)
0.0776 µM,102%,> 15.1 µM,0.1%,64.0%,0.0363 µM,100%,> 15.1 µM,0.9%,,,"CN1CCC(Cn2cc3cc(N4C(=S)N(c5cnc(C#N)c(C(F)(F)F)c5)C(=O)C45CCC5)ccc3n2)CC1 [Cpd 129, 5-[8-[2-[(1-methyl-4-piperidyl)methyl]indazol-5-yl]-5-oxo-7-thioxo-6,8-diazaspiro[3.4]octan-6-yl]-3-(trifluoromethyl)pyridine-2-carbonitrile]"
0.589 µM,101%,> 15.1 µM,0.3%,97.4%,0.708 µM,97.9%,> 15.1 µM,-0.1%,,,"CC(=O)N1CCC(n2ncc3cc(N4C(=S)N(c5cnc(C#N)c(C(F)(F)F)c5)C(=O)C45CCC5)ccc32)CC1 [Cpd 131, 5-[8-[1-(1-acetyl-4-piperidyl)indazol-5-yl]-5-oxo-7-thioxo-6,8-diazaspiro[3.4]octan-6-yl]-3-(trifluoromethyl)pyridine-2-carbonitrile]"
1.58 µM,98.3%,> 15.1 µM,0.6%,−8.5%,0.977 µM,99%,> 15.1 µM,0.7%,,,"Cn1cc(N2C(=S)N(c3cnc(C#N)c(C(F)(F)F)c3)C(=O)C23CCC3)ccc1=O [Cpd 133, 5-(5-(1-methyl-6-oxo-1,6-dihydropyridin-3-yl)-8-oxo-6-thioxo-5,7-diazaspiro[3.4]octan-7-yl)-3-(trifluoromethyl)picolinonitrile]"
0.389 µM,104%,> 15.1 µM,-0.1%,99.6%,0.155 µM,102%,> 15.1 µM,0.1%,,,"C[C@@H]1OC(c2ccc(N3C(=S)N(c4cnc(C#N)c(C(F)(F)F)c4)C(=O)C34CCC4)cc2)=C[C@H](O)[C@H]1O [Cpd 135, 5-(5-(4-((2S,3R,4S)-3,4-dihydroxy-2-methyl-3,4-dihydro-2H-pyran-6-yl)phenyl)-8-oxo-6-thioxo-5,7-diazaspiro[3.4]octan-7-yl)-3-(trifluoromethyl)picolinonitrile]"
0.427 µM,103%,> 15.1 µM,0.1%,35.6%,0.269 µM,100%,> 15.1 µM,-0.1%,,,"N#Cc1ncc(N2C(=O)C3(CCC3)N(c3ccc(OC4C5CCC4CNC5)cc3)C2=S)cc1C(F)(F)F (stereo not drawn) [Cpd 138, 5-[8-[4-(3-azabicyclo[3.2.1]octan-8-yloxy)phenyl]-5-oxo-7-thioxo-6,8-diazaspiro[3.4]octan-6-yl]-3-(trifluoromethyl)pyridine-2-carbonitrile]"
,84.9%,> 15.1 µM,0%,56.1%,,66.8%,> 15.1 µM,-0.1%,6.30,6.51,"Cl.N#Cc1ncc(N2C(=O)C3(CCC3)N(c3cnc(OC4CCNCC4)nc3)C2=S)cc1C(F)(F)F [Cpd 141, 5-{8-Oxo-5-[2-(piperidin-4-yloxy)-pyrimidin-5-yl]-6-thioxo-5,7-diaza-spiro[3.4]oct-7-yl}-3-trifluoromethyl-pyridine-2-carbonitrile]"
1.1 µM,98.3%,> 15.1 µM,0.6%,42.3%,0.363 µM,99.9%,> 15.1 µM,0.3%,,,"CN1CCC(C(=O)c2ccc(N3C(=S)N(c4cnc(C#N)c(C(F)(F)F)c4)C(=O)C34CCC4)cc2)CC1 [Cpd 144, 5-[8-[4-(1-methylpiperidine-4-carbonyl)phenyl]-5-oxo-7-thioxo-6,8-diazaspiro[3.4]octan-6-yl]-3-(trifluoromethyl)pyridine-2-carbonitrile]"
